Tests used:
[1] = target: T1, recombinant human colony stimulating factor 1 receptor (FMS) (Homo sapiens, UniProt P07333); experiment: Biochemical cFMS (CSF1R) fluorescence polarization kinase assay; settings: 10 μM ATP, 100 μM substrate, 60 minutes
T1 construct: containing the catalytic domain (amino acids 538-910); His tag; purchased Invitrogen; host or cells: insect cells
T1 sequence (P07333 538-910): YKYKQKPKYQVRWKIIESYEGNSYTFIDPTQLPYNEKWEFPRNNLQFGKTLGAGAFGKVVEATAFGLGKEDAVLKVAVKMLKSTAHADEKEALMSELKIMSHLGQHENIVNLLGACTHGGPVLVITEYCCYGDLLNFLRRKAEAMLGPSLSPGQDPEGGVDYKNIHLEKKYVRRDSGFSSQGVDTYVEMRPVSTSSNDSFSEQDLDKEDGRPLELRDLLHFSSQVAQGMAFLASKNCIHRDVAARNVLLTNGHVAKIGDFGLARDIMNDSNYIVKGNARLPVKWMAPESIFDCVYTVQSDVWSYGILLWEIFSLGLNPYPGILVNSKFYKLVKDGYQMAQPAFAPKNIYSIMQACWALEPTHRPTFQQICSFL
Procedure: Biochemical cFMS (CSF1R) Assay:
Fluorescence polarization-based kinase biochemical assays were performed in 384 well-plate format using histidine tagged recombinant human colony stimulating factor 1 receptor (FMS) supplied from Invitrogen™ (containing the catalytic domain (amino acids 538-910), expressed in insect cells and activated in vitro via auto phosphorylation) and a modified protocol of the KinEASE™ FP Fluorescein Green Assay supplied from Millipore™.
Kinase reactions were performed in 384 well plate format at room temperature for 60 minutes in presence of 100 μM substrate, 10 μM ATP and variable test article concentrations. The reaction was stopped with EDTA/KinEASE™ detection reagents and the polarization measured on a Tecan 500 instrument. From the dose-response curve obtained, the IC50 was estimated using Graph pad Prisms® using a non linear fit curve.

MV4-11 cells = experiment: Human MV4-11 biphenotypic B myelomonocytic leukemia cell survival assay; assay type: cell-based; settings: cell survival at 72h, Cell Titer-Glo
Procedure: Human MV4-11 Biphenotypic B Myelomonocytic Leukemia Cell Survival Assay
Biphenotypic B myelomonocytic leukemia MV4-11 cells (ATCC CRL-9591) were cultured in suspension at 37° C., 5% CO2 in complete medium (RPMI supplemented with 10% FBS, 1% penicillin/streptomycin). One day prior to treatment, cells per seeded in 96-well plates at 8000 cells/well in complete medium. The following day, triplicate wells were treated with compound curves of 100, 1000 or 10,000 nM starting concentration according to compound potency. Cell survival was measured 72h later by Cell Titer-Glo Luminescent Assay (Promega). Luminescence was read using a Tecan Infinite F200 microplate reader. EC50 values (50% survival in the presence of compound as compared to vehicle treated controls) were calculated from non-linear fit dose response compound curves using CambridgeSoft BioAssay software (Perkin Elmer).

[2] = tested on: M-NFS-60 M-CSF-dependent myeloid leukemia cells; experiment: Murine M-CSF-dependent M-NFS-60 cell survival assay; assay type: cell-based; settings: Mus musculus; cell survival at 72 hours, 20 ng/ml M-CSF, Cell Titer-Glo
Procedure: Cellular Assays: Murine M-CSF-Dependent M-NFS-60 Cell Survival Assay
Murine M-NFS-60 M-CSF-dependent myeloid leukemia cells were purchased from ATCC (CRL-1838). Cells were routinely cultured at 37° C., 5% CO2 in complete medium (RPMI supplemented with 10% FBS, 1% penicillin/streptomycin, 50 uM beta mercaptoethanol) containing 30 ng/ml recombinant murine M-CSF (Peprotech 315-02). For survival assays, cells were transferred to depleted medium (complete medium depleted of M-CSF) for 24 hours prior to initiation of each experiment. M-CSF-starved cells were harvested and re-suspended in complete medium containing 20 ng/ml M-CSF. Cells were seeded at 25,000 cells/well in 96-well plates and incubated for 1 hour at 37° C., 5% CO2. Cells were treated with 1 uM or 10 uM compound curves in triplicate and cell survival was measured 72 hours later by Cell Titer-Glo Luminescent Assay (Promega). Luminescence was read using a Tecan Infinite F200 microplate reader. EC50 values (50% survival in the presence of compound as compared to vehicle treated controls) were calculated from non-linear fit dose response compound curves using GraphPad Prism Software.

SMILES	IC50 [1] [nM]	EC50 (MV4-11 cells) [nM]	EC50 [2] [nM]
Nc1ncnc2c3c(n(-c4ccc(NC(=O)Nc5ccccc5C(F)(F)F)cc4)c12)CCC3 [Compound 23]	100 to 1000	> 1000	100 to 1000
Nc1ncnc2c3c(n(-c4ccc(NC(=O)NCc5ccccc5)cc4)c12)CCC3 [Compound 30]	100 to 1000	< 100	100 to 1000
Nc1ncnc2c3c(n(-c4ccc(NC(=O)NC5CCCCC5)cc4)c12)CCC3 [Compound 41]	100 to 1000	< 100	100 to 1000
Cc1ccc(F)c(NC(=O)Nc2ccc(-n3c4c(c5ncnc(N)c53)CCC4)cc2)c1 [Compound 43]	< 100	< 100	< 100
C[C@@H](NC(=O)Nc1ccc(-n2c3c(c4ncnc(N)c42)CCC3)cc1)c1ccccc1 [Compound 45]	100 to 1000	< 100	100 to 1000
Nc1ncnc2c3c(n(-c4ccc(NC(=O)NCCc5ccccc5)cc4)c12)CCC3 [Compound 46]	100 to 1000	< 100	100 to 1000
Cc1ccc(F)c(NC(=O)Nc2ccc(-n3c4c(c5ncnc(N)c53)COC4)cc2)c1 [Compound 47]	100 to 1000	< 100	< 100
Nc1ncnc2c3c(n(-c4ccc(NC(=O)Nc5cccc(C(F)(F)F)c5)cc4)c12)COC3 [Compound 48]	< 100	< 100	100 to 1000
Nc1ncnc2c3c(n(-c4ccc(NC(=O)Nc5ccc(F)cc5F)cc4)c12)CCC3 [Compound 50]	100 to 1000	< 100	< 100
COc1ccc(NC(=O)Nc2ccc(-n3c4c(c5ncnc(N)c53)CCC4)cc2)c(F)c1 [Compound 54]	< 100	< 100	< 100
COc1ccc(NC(=O)Nc2ccc(-n3c4c(c5ncnc(N)c53)CCC4)cc2)cc1C(F)(F)F [Compound 55]	100 to 1000	< 100	100 to 1000
COc1ccc(C(F)(F)F)cc1NC(=O)Nc1ccc(-n2c3c(c4ncnc(N)c42)CCC3)cc1 [Compound 58]	100 to 1000	< 100	100 to 1000
Nc1ncnc2c3c(n(-c4ccc(NC(=O)Nc5cc(C(F)(F)F)ccc5F)c(F)c4)c12)CCC3 [Compound 62]	100 to 1000	< 100	100 to 1000
Nc1ncnc2c3c(n(-c4ccc(NC(=O)Nc5cccc(C(F)(F)F)c5)c(F)c4)c12)CCC3 [Compound 63]	100 to 1000	< 100	< 100
Nc1ncnc2c3c(n(-c4ccc(NC(=O)Nc5cc(C(F)(F)F)ccc5F)cc4)c12)COC3 [Compound 67]	100 to 1000	< 100	100 to 1000
Nc1ncnc2c3c(n(-c4ccc(NC(=O)Nc5ccccc5OC(F)F)cc4)c12)CCC3 [Compound 68]	100 to 1000	< 100	100 to 1000
Nc1ncnc2c3c(n(-c4ccc(NC(=O)Nc5cc(C(F)(F)F)ccc5Cl)cc4)c12)CCC3 [Compound 69]	100 to 1000	< 100	100 to 1000
C[C@@H](NC(=O)Nc1ccc(-n2c3c(c4ncnc(N)c42)CCC3)cc1)c1ccc(F)cc1 [Compound 73]	100 to 1000	< 100	100 to 1000

Further lines, with some results ahead:

IC50 [1] [nM]	SMILES	EC50 (MV4-11 cells) [nM]	EC50 [2] [nM]
100 to 1000	Nc1ncnc2c3c(n(-c4ccc(NC(=O)Nc5cccc(Cl)c5)cc4)c12)CCC3 [Compound 20]	100 to 1000	< 100
100 to 1000	Nc1ncnc2c3c(n(-c4ccc(NC(=O)Nc5ccc(C(F)(F)F)cc5)cc4)c12)CCC3 [Compound 21]	100 to 1000	< 100
< 100	Nc1ncnc2c3c(n(-c4ccc(NC(=O)Nc5ccc(OC(F)F)cc5)cc4)c12)CCC3 [Compound 27]	< 100	< 100
< 100	Nc1ncnc2c3c(n(-c4ccc(NC(=O)Nc5ccc6c(c5)OCO6)cc4)c12)CCC3 [Compound 28]	< 100	< 100
100 to 1000	Nc1ncnc2c3c(n(-c4ccc(NC(=O)Nc5ccc(F)cc5)cc4)c12)COC3 [Compound 33]	100 to 1000	100 to 1000
< 100	COc1cc(NC(=O)Nc2ccc(-n3c4c(c5ncnc(N)c53)CCC4)cc2)ccc1F [Compound 35]	< 100	100 to 1000
100 to 1000	Nc1ncnc2c3c(n(-c4ccc(NC(=O)Nc5ccccc5Cl)cc4)c12)CCC3 [Compound 36]	> 1000	100 to 1000
100 to 1000	Nc1ncnc2c3c(n(-c4ccc(NC(=O)Nc5ccccc5F)cc4)c12)CCC3 [Compound 39]	100 to 1000	< 100
< 100	COc1ccc(NC(=O)Nc2ccc(-n3c4c(c5ncnc(N)c53)CCC4)cc2)cc1F [Compound 56]	< 100	< 100
100 to 1000	Nc1ncnc2c3c(n(-c4ccc(NC(=O)Nc5cccc(OC(F)F)c5)cc4)c12)CCC3 [Compound 57]	< 100	< 100
100 to 1000	Nc1ncnc2c3c(n(-c4ccc(NC(=O)Nc5ccc(Cl)c(C(F)(F)F)c5)cc4)c12)CCC3 [Compound 59]	< 100	100 to 1000
100 to 1000	CS(=O)(=O)c1ccc(NC(=O)Nc2ccc(-n3c4c(c5ncnc(N)c53)CCC4)cc2)cc1 [Compound 64]	100 to 1000	> 1000
> 1000	N#Cc1ccc(NC(=O)Nc2ccc(-n3c4c(c5ncnc(N)c53)CCC4)cc2)cc1 [Compound 65]	< 100	100 to 1000
100 to 1000	N#Cc1cccc(NC(=O)Nc2ccc(-n3c4c(c5ncnc(N)c53)CCC4)cc2)c1 [Compound 66]	< 100	100 to 1000
> 1000	N#Cc1ccccc1NC(=O)Nc1ccc(-n2c3c(c4ncnc(N)c42)CCC3)cc1 [Compound 71]	100 to 1000	> 1000
100 to 1000	CS(=O)(=O)c1cccc(NC(=O)Nc2ccc(-n3c4c(c5ncnc(N)c53)CCC4)cc2)c1 [Compound 72]	< 100	100 to 1000

Source: patent US9284318B2, “Protein kinase inhibitors” (Pharmascience, Inc., priority 2011, dated 2016)
